Assay results reported in publication PMC7033200, “Annexin A1 accounts for an anti-inflammatory binding target of sesamin metabolites” (NPJ Science of Food, 2020).

Experiments:
[1] = tested on: TNFα production in U937 cells; assay: TNFα production in PMA/LPS-stimulated U937 cells (ELISA); assay type: cell-based, human; details: for IC50: Homo sapiens, U-937, PMA-differentiated U937 cells, LPS, 12 h, ELISA; for inhibition of TNFα production induced by LPS and PMA: U937 cells, dose-dependent
Method: (§1) For enzyme-linked immunosorbent assay (ELISA) assays, U937 cells (control or ANX A1 KD) were seeded on 96-well plates and stimulated by adding 100 nmol L^−1 phorbol myristate acetate (Sigma-Aldrich, MO, USA) for 24 h. The cells were treated for 12 h with LPS (100 ng mL^−1) with or without adding the indicated sesamin, SC1, or SC2 and/or PD98059 concentrations. The cell culture supernatants were collected, and TNFα or ANX A1 production was measured using ELISA (TNFα: R&D Systems; ANX A1: USCN, Wuhan, China) according to the manufacturer’s instructions.

CCl4-treated WT mice = assay: CCl4-induced liver damage and inflammation in WT mice; assay type: in vivo, mouse (C57BL/6J)
Source text: (§2) All protocols for animal procedures were approved by the Ethics Committee of Animal Experiments in accordance with the Internal Regulations on Animal Experiments at Keio University and Suntory Holdings Ltd, which are based on the Law for the Humane Treatment and Management of Animals (Law No. 105, 1 October 1973, as amended on 30 May 2014). Male C57BL/6J wild-type (WT) mice were purchased from CLEA Japan Inc. (Tokyo, Japan). WT and ANX A1-KO mice at 7 to 9 weeks of age received an intraperitoneal injection of vehicle (corn oil, 16.7 mL kg^−1) or CCl4 (50 μL kg^−1). To evaluate the effect of sesamin, vehicle (olive oil, 5 mL kg^−1) or sesamin (25 mg kg^−1) was orally administered twice at 1 h before and 7 h after CCl4 injection. To evaluate the effect of SC1, vehicle (ethanol dissolved in corn oil at a ratio of 1:19, 5 mL kg^−1) or SC1 (50 mg kg^−1) was intraperitoneally administered twice as mentioned above. Mice were euthanized after 12 or 24 h […] CCl4 injection before collecting blood and liver samples. Plasma AST, ALT, or LDH were measured using L-type AST J2, L-type ALT J2 or L-type LD J (Wako, Osaka, Japan), respectively. The liver tissues were fixed with 10% formalin, embedded in paraffin sectioned to 3–4 μm thickness and mounted on slides. Liver sections were de-paraffinized with xylene and re-hydrated with alcohols. The staining was performed with eosin solution for the cytoplasm and Mayer’s haematoxylin solution or monoclonal galectin-3 antibody (1:100, BioLegend, CA, USA). Slides were observed under a light microscope (BX52, Olympus, Japan), and images were analysed using LUMINA VISION (Mitani Corporation, Japan).
(§3) Production of TNFα or MCP-1 in the plasma or liver was measured using a V-PLEX Proinflammatory Panel 1 Mouse Kit or U-PLEX Mouse MCP-1 assay Kit (Meso Scale Diagnostics, USA), respectively. Plasma or liver tissues homogenised in phosphate-buffered saline (Nacalai Tesque) were applied into the pre-coated plate with antibodies against target proteins before labelling with secondary antibodies conjugated to chemiluminescence. The signal intensity was measured using an analyser (SECTOR Imager 6000, Meso Scale Diagnostics, USA).
(§4) Total RNA of the liver was extracted using an RNeasy Mini Kit (Qiagen, USA), and the cDNAs were prepared using High-Capacity cDNA Reverse Transcription Kits (Thermo Fisher Scientific, USA). Quantitative reverse transcription-PCR was performed according to the manufacturer’s instructions using the TaqMan® Gene Expression Assay System (Applied Biosystems, USA) with a 7900HT Fast Real Time PCR System (Applied Biosystems, USA). The levels of target mRNAs were normalised using the expression of the 18S ribosomal RNA. The primer IDs are listed in Supplementary Table 1.

[2] = tested on: ANX A1 mutants (G210W, F221S, and V251W); assay: ITC binding analysis using recombinant ANX A1 point mutants; set-up: species or system human; details: V251W in contrast with ANX A1 WT
Method: (§5) ITC experiments were performed at 298 K with ITC buffer (20 mmol L^−1 Tris-HCl (pH 7.5), 100 mmol L^−1 NaCl, 2% dimethyl sulfoxide) using a MicroCal iTC200 (Malvern). SC1 or SC2 were dissolved at 2 mmol L^−1 with ITC buffer and titrated into 1 μmol L^−1 of ANX A1 protein with or without 2 mmol L^−1 EDTA (for apo-ANX A1) or 3 mmol L^−1 CaCl2 (for Ca^2+-bound ANX A1). The titration was performed by injecting 2 µL of the syringe solution at intervals of 120 s. The binding isotherms were analysed using SEDPHAT.[54]
Supplementary Fi g u re 3. Isothermal titra tion calori met ry analyses using ANX A1 […]
Analyses of binding affinity between SC1 and ANX A1 (wild type (WT) or point mutants (G210W, F221S, or V251W)) using isothermal titration calorimetry ( ITC). […]
(1 picture or pasted object on this page, not shown here)

[3] = tested on: extracellular ANX A1 release from U937 cells; assay: Extracellular release of ANX A1 from U937 cells (ELISA); assay type: cell-based, human; details: for cellular release of ANX A1: PMA/LPS-treated U937 cells
Method: as §1

ANX A1 = target: T1, ANX A1 (Homo sapiens, UniProt P04083); assay: Isothermal titration calorimetry (ITC) binding to ANX A1; details: for dH / dS: 3 mmol L^-1 Ca^2+; for Kd: Ca^2+ form of ANX A1, 3 mmol L^-1 CaCl2, ITC, 298 K, read-out: binding affinity (Kd)
T1 construct: The ANX A1 cDNA fragment, full-length (1–346 a.a.) or deletion mutants; GST (pGEX-6P-1) (N, cleaved yes); made in house; host or cells: Escherichia coli BL21 (DE3)
T1 sequence (P04083 1-346): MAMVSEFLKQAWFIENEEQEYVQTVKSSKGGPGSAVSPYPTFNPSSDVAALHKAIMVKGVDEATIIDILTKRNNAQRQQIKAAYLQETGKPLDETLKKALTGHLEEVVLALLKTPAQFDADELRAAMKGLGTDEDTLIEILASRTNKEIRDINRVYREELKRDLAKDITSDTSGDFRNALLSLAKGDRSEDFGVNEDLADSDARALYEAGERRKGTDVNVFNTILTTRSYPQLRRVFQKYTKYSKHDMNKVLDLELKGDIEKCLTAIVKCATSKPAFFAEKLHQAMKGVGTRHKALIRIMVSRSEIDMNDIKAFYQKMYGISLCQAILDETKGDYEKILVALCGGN
Method: as §5

recombinant ANX V = tested on: T2, recombinant ANX V; assay: Affinity nanobeads binding assay with recombinant annexin V
T2 construct: purchased Abcam

[4] = tested on: phosphorylated (Ser27) ANX A1 in U937 cells; assay: ANX A1 Ser27 phosphorylation in U937 cells (western blotting); assay type: cell-based, human
Method: For analyses of ANX A1 phosphorylation, the U937 cells treated as above were lysed with NP40 lysis buffer (20 mmol L^−1 Tris-HCl (pH 7.5), 150 mmol L^−1 NaCl, 1% NP40), and the lysates (10 μg) were subjected to SDS-PAGE, followed by western blotting using antibodies against ANX A1 or phosphorylated (Ser27) ANX A1 (dilution: 1:1000).

[5] = tested on: CCl4-treated ANX A1-KO mice; assay: CCl4-induced liver damage and inflammation in ANX A1-KO mice; assay type: in vivo, mouse (C57BL/6J)
Source text: ANX A1-deficient mice (C57BL/6J) were generated by homologous recombination at Trans Genic Inc. (Fukuoka, Japan), as shown in Fig. S4. The vector targeting ANX A1 for deleting the coding region (exons 3–6) containing selectable neomycin-resistance (Neo) and PGK promoter genes was used. The targeting vector contained the 3.0 kbp of the 5′ arm flanking sequence and 4.5 kbp of the 3′ arm flanking sequence. The PGK-Neor gene was deleted by crossing with the CAG-flp mouse.[58]
as §2, §3, §4

[6] = tested on: TNFα production in ANX A1 KD U937 cells; assay: TNFα production in ANX A1 knockdown U937 cells (ELISA); assay type: cell-based, human; details: U937 cells with knocked down ANX A1
Method: U937 cells were maintained in RPMI-1640 medium (Gibco/Thermo Fisher Scientific, MA, USA) supplemented with 10% fetal bovine serum. To generate a stable ANX A1-KD cell line, lentivirus vectors encoding a control or shRNA sequence targeting ANX A1 (Supplementary Methods) were transfected into 293FT cells. The lentivirus was prepared according to the manufacturer’s instructions (Invitrogen, MA, USA). U937 cells were infected with the lentivirus, and a stable cell line was selected by maintaining the cells in medium containing 10 μg mL^−1 blasticidin (Invitrogen) for 1 week.
as §1

[7] = SC1 50 mg kg^−1 intraperitoneally twice, 12 h after CCl4, WT
[8] = SC1 50 mg kg^−1 intraperitoneally twice, 24 h, WT
[9] = SC1 50 mg kg^−1 intraperitoneally twice, 12 h after CCl4, ANX A1-null
[10] = sesamin 25 mg kg^−1 twice, 12 h, qPCR, WT
[11] = sesamin 25 mg kg^−1 twice, 12 h after CCl4, WT
[12] = sesamin 25 mg kg^−1 twice, 24 h, qPCR, WT
[13] = sesamin 25 mg kg^−1 orally twice, 24 h, ANX A1-null
[14] = sesamin 25 mg kg^−1 twice, 12 h, qPCR, ANX A1-null
[15] = sesamin 25 mg kg^−1 twice, 12 h after CCl4, ANX A1-null
[16] = sesamin 25 mg kg^−1 twice, 24 h, qPCR, ANX A1-null

SMILES: Oc1ccc(C2OCC3C(c4ccc5c(c4)OCO5)OCC23)cc1O (stereo not drawn) [SC1, (7α,7′α,8α,8′α)-3′,4′-methylenedioxy-7,9′:7′,9-diepoxylignane-3,4-diol]
- IC50 [1]: 2.2 µM
- inhibition of TNFα production induced by LPS and PMA [1]: significantly inhibited
- MCP-1 expression in the liver (CCl4-treated WT mice; [7]): suppressed
- TNFα expression in the liver (CCl4-treated WT mice; [7]): suppressed
- plasma ALT (CCl4-treated WT mice; [8]): suppressed
- plasma AST (CCl4-treated WT mice; [8]): suppressed
- plasma LDH (CCl4-treated WT mice; [8]): suppressed
- binding activity to SC1 of ANX A1 mutants [2]: disrupted the binding activity
- cellular release of ANX A1 [3]: significantly enhanced
- dH (ANX A1; ITC): -452.11 kcal/mol
- dS (ANX A1; ITC): -1491.41 cal/mol K
- Kd (ANX A1): 2.77 µM
- binding to apo-ANX A1 (ANX A1; Ca^2+ free (EDTA), ITC): No binding
- binding of recombinant ANX V to beads (recombinant ANX V): no binding
- ANX A1 phosphorylation at Ser27 ([4]; after PMA and LPS treatment, dose-dependent, 12 h): significantly induced phosphorylation
- ANX A1 phosphorylation at Ser27 ([4]; without PMA and LPS stimulation): not observed
- MCP-1 expression in the liver [5, 9]: no effect was observed
- TNFα expression in the liver [5, 9]: no effect was observed
- plasma AST ([5]; SC1 50 mg kg^−1 intraperitoneally twice, 24 h, ANX A1-null): not
- inhibitory effects on TNFα production in ANX A1 knockdown cells [6]: disappeared

SMILES: c1cc2c(cc1[C@H]1OC[C@H]3[C@@H]1CO[C@@H]3c1ccc3c(c1)OCO3)OCO2 [Sesamin, (7α,7′α,8α,8′α)-3,4:3′,4′-bis(methylenedioxy)-7,9′:7′,9-diepoxylignane]
- inhibition of TNFα production induced by LPS and PMA [1]: little inhibitory effect
- plasma ALT (CCl4-treated WT mice; sesamin 25 mg kg^−1 orally twice (1 h before, 7 h after CCl4), 24 h, WT): significantly suppressed
- plasma LDH (CCl4-treated WT mice; sesamin 25 mg kg^−1 orally twice, 24 h, WT): significantly suppressed
- liver injury around the central vein (histology) (CCl4-treated WT mice; sesamin 25 mg kg^−1 orally twice, H&E, WT): suppressed liver injury
- MCP-1 mRNA expression in the liver (CCl4-treated WT mice; [10]): significantly suppressed
- TNFα mRNA expression in the liver (CCl4-treated WT mice; [10]): significantly suppressed
- galectin-3 mRNA expression in the liver (CCl4-treated WT mice; [10]): significantly suppressed
- MCP-1 protein in the liver (CCl4-treated WT mice; [11]): significantly suppressed
- MCP-1 protein in the plasma (CCl4-treated WT mice; [11]): significantly suppressed
- TNFα protein in the liver (CCl4-treated WT mice; [11]): significantly suppressed
- TNFα protein in the plasma (CCl4-treated WT mice; [11]): significantly suppressed
- accumulation of galectin-3-positive cells in the liver (CCl4-treated WT mice; sesamin 25 mg kg^−1 twice, 24 h, histology, WT): suppressed
- liver mRNA expression of Col1a1 (CCl4-treated WT mice; [12]): suppressed
- liver mRNA expression of αSMA (CCl4-treated WT mice; [12]): suppressed
- cellular release of ANX A1 [3]: not
- binding activity with ANX A1 using ITC analysis (ANX A1; ITC): unable to detect any binding activity
- plasma ALT [5, 13]: not observed
- plasma LDH [5, 13]: not observed
- liver injury around the central vein (histology) ([5]; sesamin 25 mg kg^−1 orally twice, H&E, ANX A1-null): not
- MCP-1 mRNA expression in the liver [5, 14]: not observed
- TNFα mRNA expression in the liver [5, 14]: not observed
- galectin-3 mRNA expression in the liver [5, 14]: not observed
- MCP-1 protein in the plasma [5, 15]: not
- TNFα protein in the liver [5, 15]: not
- TNFα protein in the plasma [5, 15]: not
- accumulation of galectin-3-positive cells in the liver ([5]; sesamin 25 mg kg^−1 twice, 24 h, histology, ANX A1-null): not
- liver mRNA expression of Col1a1 [5, 16]: not
- liver mRNA expression of αSMA [5, 16]: not

SMILES: Oc1ccc(C2OCC3C(c4ccc(O)c(O)c4)OCC23)cc1O (stereo not drawn) [SC2, (7α,7′α,8α,8′α)-7,9′:7′,9-diepoxylignane-3,3′,4,4′-tetraol]
- IC50 [1]: 10.3 µM
- inhibition of TNFα production induced by LPS and PMA [1]: significantly inhibited
- cellular release of ANX A1 [3]: significantly enhanced
- dH (ANX A1; ITC): -308.15 kcal/mol
- dS (ANX A1; ITC): -1010.16 cal/mol K
- Kd (ANX A1): 8.05 µM
- inhibitory effects on TNFα production in ANX A1 knockdown cells [6]: disappeared

SMILES: COc1cccc(-c2cc(=O)c3ccccc3o2)c1N [PD98059, reference compound]
- effect on up-regulation of ANX A1 release ([3]; treated 1 h prior to LPS, dose-dependent): inhibited
- effect on SC1-induced phosphorylation of ANX A1 ([4]; treated 1 h prior to LPS treatment): suppressed
